# Measurements reported in ChEMBL document CHEMBL3763057 (J Med Chem, 2016).
# Active and inactive are the calls of the source. The calls are words filed in the database; no cut-off is given here.
# Legend:
# Beta-secretase 1 = Beta-secretase 1 (Homo sapiens, UniProt P56817); assay: Inhibition of human recombinant BACE1 using M-2420 as substrate preincubated for 1 hr followed by substrate addition incubated for 15 mins by FRET assay
# [1] = target: Glycogen synthase kinase-3 beta (Homo sapiens, UniProt P49841); assay: Inhibition of human recombinant GSK3-beta using prephosphorylated polypeptide as substrate incubated for 30 mins by Glo-type luminescence assay
# T67 [2] = assay: Neuroprotective effect in human T67 cells assessed as inhibition of TBH-induced ROS formation at 10 uM after 30 mins by DCFH-DA fluorescent probe-based spectrofluorimetric analysis; type: functional, cell-based
# T67 [3] = assay: Neuroprotective effect in human T67 cells assessed as increase in NQO1 activity using DCIP as substrate; type: functional, cell-based
# [4] = Cytotoxicity against human T67 cells up to 20 uM after 24 hrs by MTT assay; type: cell-based; conditions: t67, 24 h
# [5] = Permeability of the compound by PAMPA-BBB assay; type: ADME; conditions: read-out: permeability
# [6] = Cytotoxicity against human T67 cells at 10 uM after 24 hrs by MTT assay; type: cell-based; conditions: t67, 24 h
# [7] = Cytotoxicity against human T67 cells at 20 uM after 24 hrs by MTT assay; type: cell-based; conditions: t67, 24 h
# [8] = Chemical stability of the compound in phosphate and borate buffer at pH 7.4 and 9.2 incubated for 3 days by RP-HPLC analysis; type: physicochemical; conditions: pH 7.4, 72 h
# [9] = Chemical stability of the compound in phosphate and borate buffer assessed as formation of degradation product at pH 7.4 and 9.2 incubated for 3 days by RP-HPLC analysis; type: physicochemical; conditions: pH 7.4, 72 h
# Chain of Glycogen synthase kinase-3 beta (P49841 whole entry): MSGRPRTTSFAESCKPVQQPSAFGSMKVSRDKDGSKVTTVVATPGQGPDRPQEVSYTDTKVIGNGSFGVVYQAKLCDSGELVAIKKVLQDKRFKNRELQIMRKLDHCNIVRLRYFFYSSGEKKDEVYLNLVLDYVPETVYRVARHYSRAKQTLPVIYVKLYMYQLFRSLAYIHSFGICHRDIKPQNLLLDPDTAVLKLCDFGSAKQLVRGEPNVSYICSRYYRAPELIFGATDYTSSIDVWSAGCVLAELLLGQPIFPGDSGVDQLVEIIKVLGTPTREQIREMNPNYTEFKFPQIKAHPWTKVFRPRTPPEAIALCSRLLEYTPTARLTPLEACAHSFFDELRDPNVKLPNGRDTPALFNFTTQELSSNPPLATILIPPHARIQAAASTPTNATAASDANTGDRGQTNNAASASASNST
# Chain of Beta-secretase 1 (P56817 whole entry): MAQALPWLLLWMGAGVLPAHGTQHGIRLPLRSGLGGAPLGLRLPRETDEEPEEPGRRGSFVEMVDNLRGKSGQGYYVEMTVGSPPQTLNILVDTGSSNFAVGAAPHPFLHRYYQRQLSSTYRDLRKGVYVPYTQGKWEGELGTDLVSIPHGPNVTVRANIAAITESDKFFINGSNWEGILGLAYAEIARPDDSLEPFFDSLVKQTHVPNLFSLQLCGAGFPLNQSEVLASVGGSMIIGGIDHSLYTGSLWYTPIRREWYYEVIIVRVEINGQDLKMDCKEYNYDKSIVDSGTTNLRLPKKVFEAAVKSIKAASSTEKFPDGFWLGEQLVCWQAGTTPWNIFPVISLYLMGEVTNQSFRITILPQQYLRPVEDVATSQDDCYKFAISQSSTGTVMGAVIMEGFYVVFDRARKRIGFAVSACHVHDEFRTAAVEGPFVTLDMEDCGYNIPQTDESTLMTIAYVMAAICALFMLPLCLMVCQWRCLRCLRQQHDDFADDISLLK
SMILES,IC50 (Beta-secretase 1) [µM],IC50 [1] [µM],Papp [5] [nm/s],Stability [8],Stability [9],Activity (T67 [2]),Activity (T67 [3]),Activity [4],Activity [6],Activity [7]
O=C(/C=C/c1ccc(OCc2ccc(F)cc2F)cc1)CC(=O)/C=C/c1ccc(OCc2ccc(F)cc2F)cc1,1,9.06,,,,,,,,
O=C(/C=C(O)/C=C/c1ccc(OCc2ccccc2)cc1)/C=C/c1ccc(O)cc1,2.69,2.01,,,,inactive,Active,Toxic,,
O=C(/C=C(O)/C=C/c1ccc(OCc2ccccc2)cc1)/C=C/c1ccc(OCc2ccccc2)cc1,0.04,2.49,36,,,Active,Active,Non-toxic,,
O=C(/C=C(O)/C=C/c1ccc(O)cc1)/C=C/c1ccc(O)cc1,,8.39,78,,,inactive,Active,,Non-toxic,Toxic
COc1cc(/C=C/C(=O)CC(=O)/C=C/c2ccc(O)c(OC)c2)ccc1O [CURCUMIN],,17.9,25,,,,Active,Non-toxic,,
COc1cc(/C=C/C(O)=C/C(=O)/C=C/c2ccc(C)cc2)ccc1O,0.14,2.09,82,,,inactive,Active,Non-toxic,,
O=C(/C=C/c1ccc(OCc2ccccc2)cc1)CC(=O)/C=C/c1ccc(OCc2ccccc2)cc1,6.04,5.56,,,,,,,,
COc1ccc(/C=C/C(=O)CC(=O)/C=C/c2ccc(OC)cc2)cc1,> 5,15.3,,,Unstable,,,,,
O=C(/C=C(O)/C=C/c1ccc(OCc2ccc(F)cc2F)cc1)/C=C/c1ccc(OCc2ccc(F)cc2F)cc1,0.4,9.63,,,,,,,,

# Now from value to molecule, other results behind:
IC50 (Beta-secretase 1) [µM],IC50 [1] [µM],Papp [5] [nm/s],Stability [8],Stability [9],SMILES,Activity (T67 [2]),Activity (T67 [3]),Activity [4],Activity [6],Activity [7]
0.39,8.3,,,,O=C(/C=C(O)/C=C/c1ccc(OCc2cc(F)cc(F)c2)cc1)/C=C/c1ccc(OCc2cc(F)cc(F)c2)cc1,,,,,
0.73,9.66,,,,O=C(/C=C/c1ccc(OCc2cc(F)cc(F)c2)cc1)CC(=O)/C=C/c1ccc(OCc2cc(F)cc(F)c2)cc1,,,,,
1.65,0.53,28,Stable,,COc1ccc(/C=C/C(=O)/C=C(O)/C=C/c2ccc(OC)cc2)cc1,inactive,Active,,Non-toxic,
1.04,12.8,,,,O=C(/C=C(O)/C=C/c1ccc(OCc2ccc(F)cc2)cc1)/C=C/c1ccc(OCc2ccc(F)cc2)cc1,,,,,
2.28,2.78,70,,,COc1ccc(/C=C/C(=O)/C=C(O)/C=C/c2ccc(OCc3ccccc3)cc2)cc1,inactive,Active,Non-toxic,Non-toxic,
1.08,17,,,,O=C(/C=C(O)/C=C/c1ccc(OCc2cccc(F)c2)cc1)/C=C/c1ccc(OCc2cccc(F)c2)cc1,,,,,
0.97,0.9,77,,,COc1cc(/C=C/C(O)=C/C(=O)/C=C/c2ccc(OCc3ccccc3)cc2)ccc1O,Active,Active,Non-toxic,,
